Assay results as given in patent US7977041B2, “Methods and kits for testing the efficacy of therapeutic compounds and other therapies in a three-dimensional matrix with respect to tumorous cells and tissue” (priority 2006, dated 2011).

Tested on: renal cell carcinoma tissue, Patient Sample GS-640 (kidney tissue)
Experiment: tumor tissue fragments in three-dimensional gel matrix: cell migration/invasion away from the fragment under chemotherapy
Format: cell-based, human
Details: 5 days treatment; for number of invading cells: compared with control sample at Day 5; for response of tumor sample to the drug (behavior of cells growing and invading away from the solid tumor fragment): patient renal cell carcinoma fragments in gel matrix, 37 degree Celsius, 5% CO2, compared with untreated control
Source text: FIGS. 1-8 are photographic and photomicrographic images which show, by way of example, use of the means and methods of the present invention with respect to a tissue sample removed from a patient. With respect to FIGS. 1-8, Patient Sample GS-640, comprising kidney tissue, was removed from the patient by a surgeon during surgery.
Tissue analysis and screening in accordance with the invention were requested by the surgeon, and proper consent was obtained from the patient prior to surgical removal of a sample quantity of tissue from the RHS Kidney. The patient was diagnosed with renal cell carcinoma. A tissue sample of approximately 1 gram in quantity was removed from the patient during surgery, and was placed into a 25 ml sample jar, and immersed in sterile saline. The tumor tissue was kept at 4 degrees centigrade until processed for the screening of therapeutic compounds in accordance with the means and methods of the invention. All procedures were performed under sterile conditions in a bio-safety laminar flow hood.
FIG. 1 is a photographic image showing the mechanical division of the sample into portions to be tested. The sample has been prepared by dissecting away any non viable tissue and blood prior to mincing into 1-2 mm pieces using sterile disposable scalpels.
FIG. 2 is a photographic image showing tumor sample portions which have been placed into each well of a 48 well plate, and been submersed in a gel matrix mixture according to the invention. After insertion of the portions, the mixture was allowed to form into a gel at room temperature for approximately 30 minutes. Once the gel formed around the fully immersed tumor fragments, nutrient rich media was added as a liquid overlay that permeated the entire gel and tumor fragment.
Each different chemotherapy and or dose of chemotherapy was added to a set of 6 wells out of the 48-well plate. A total of 7 different chemotherapies were assessed in this plate. One set of six wells were not treated with drug and thus acted as ‘control conditions’ for tumor fragment growth and invasion. Each of the eight vertical lanes containing six separate wells was marked with a symbol for each chemotherapy/dose used and noted correspondingly on data collection sheets. […] The plates were then placed in a conventional 37 degree Celsius incubator at 5% CO2.
This image is thus representative of all wells at Day 0 with or without chemotherapeutics. Images were made with a 400× magnification phase contrast micrograph using ZEISS camera specs.
FIG. 4 is a photomicrographic image which showing a patient control sample (no treatment) after 3 days incubation @37° C. and 5% CO2. Noteworthy is the migration of cells away from the solid tumor mass in a halo around the tumour fragment.
Noteworthy is the halo of cells and increased cell density as compared with the results shown at Day 3 of the test. The lines on the images have been drawn to show the distance measurements within which approximately 95% of the migrating cells have migrated away from the margins of the tissue sample.

Row | SMILES | migratory distance of cells | number of invading cells | response of tumor sample to the drug (behavior of cells growing and invading away from the solid tumor fragment)
1 | CC(=O)O[C@@]12CO[C@@H]1C[C@H](O)[C@@]1(C)C(=O)[C@H](O)C3=C(C)[C@@H](OC(=O)[C@H](O)[C@@H](NC(=O)OC(C)(C)C)c4ccccc4)C[C@@](O)([C@@H](OC(=O)c4ccccc4)[C@H]21)C3(C)C [Docetaxol, Docetaxel] | longer migratory distance than treatment with Taxol | fewer number of invading cells than the control | moderate response
2 | N.N.[Cl][Pt][Cl] [Cisplatin] | – | identical in appearance and cell numbers to the control sample | failed chemotherapy
3 | CC(=O)O[C@H]1C(=O)[C@@]2(C)[C@H]([C@H](OC(=O)c3ccccc3)[C@]3(O)C[C@H](OC(=O)[C@H](O)[C@@H](NC(=O)c4ccccc4)c4ccccc4)C(C)=C1C3(C)C)[C@]1(OC(C)=O)CO[C@@H]1C[C@@H]2O [Taxol, Paclitaxel] | – | – | a drop in both the distance and the number of cells that have grown and invaded away from the solid tumor fragment
